Experimental data reported in patent publication US20250042853A1, “BICYCLIC COMPOUND AND APPLICATION THEREOF” (BETTA PHARMACEUTICALS CO., LTD, priority 2021, published 2025).

Columns and labels:
VEGFA = VEGFA ELISA assay (IC50); format: cell-based; conditions: Homo sapiens, 786-0, 786-O cells, 24 h, VEGFA in culture supernatant by ELISA
Protocol: 786-O cells in the logarithmic growth phase were inoculated into a 96-well plate at a cell concentration of 65,000 cells per ml of culture liquid, 180 μL per well. The compounds were diluted to the corresponding concentrations, and 20 μL of compound solutions of various concentrations were added to the corresponding cell wells, so that the final concentrations of the compounds were 1.5 nM, 4.6 nM, 13.7 nM, 41.2 nM, 123.5 nM, 370.4 nM, 1111.1 nM, 3333.3 nM, and 10000 nM, respectively. After culturing for 24 h, the cell culture supernatant was collected and the VEGFA concentration was determined using an ELISA kit (purchased from Abeam). Finally, the reaction was terminated and the absorbance value of each well was measured at a wavelength of 450 nm using an ELISA reader. The IC50 values were calculated by GraphPadPrism. CellTiter-Glo reagent was used to measure cell viability.

786-O-HIF2α-Luc cells = assay: Luciferase assay (HIF2α reporter gene cells); format: cell-based; conditions: 18-20 h, luminescence
Protocol: The luciferase LUC gene was stably transfected into 786-0 cells (purchased from ATCC) using Lipofectamine 3000 transfection reagent (purchased from Invitrogen) to construct HIF2α reporter gene cells (786-O-HIF2α-Luc cells). The experiment was performed when 786-O-HIF2α-Luc cells were in the logarithmic growth phase, the culture medium (RPMI MEDIUM 1640, purchased from Invitrogen) was discarded, and the cells were rinsed three times with PBS; trypsin (TrypLE, purchased from Invitrogen) was added to digest the cells, and the digestion was terminated with culture medium, 10% fetal bovine serum, 1% penicillin, and streptomycin. The cells were collected by centrifugation, and washed twice with PBS to remove phenol red in the culture medium. The cells were resuspended to an appropriate concentration. The cell density and viability were measured, to ensure that the cells with a viability of at least 90% were used in the assay.
The compounds at a gradient concentration were transferred into 384 wells using Echo550 (non-contact acoustic pipetting system, purchased from Labcyte), 25 nL/well. The cells were seeded into 384-well plates, with 4500 cells/well and 25 μL of culture medium, and the final concentrations of the compounds were 10000 nM, 3333 nM, 1111 nM, 370 nM, 123 nM, 41.1 nM, 13.7 nM, 4.6 nM, 1.5 nM, and 0.5 nM, respectively. The cells were cultured for 18-20 h under conditions of 37° C. and 5% CO2. Steady-Glo™ luciferase assay system (purchased from Promega) was added to a 384-well plate, 25 μL/well. Luminescence values were detected using Envision. The inhibition rate % was calculated based on the RLU (Record Luminescence) signal value of each well, and then the IC50 values of the corresponding compounds were calculated by fitting using Graphpad 8.0.
The IC50 data of the exemplary examples are provided in Table 2, where A stands for IC50≤0.1 μM; B stands for 0.1 μM<IC50≤0.5 μM; and C stands for IC50>0.5 μM.

| IC50 (VEGFA) [nM] | IC50 (VEGFA; class symbols) [nM] | Compound | other results |
| --- | --- | --- | --- |
| 41 |  | O=S(=O)(c1cn(-c2ccc(F)c(Cl)c2)c2c1[C@H](O)C(F)(F)CC2)C(F)(F)F [Example 33, (S)-1-(3-chloro-4-fluorophenyl)-5,5-difluoro-3-((trifluoromethyl)sulfonyl)-4,5,6,7-tetrahydro-1H-indol-4-ol] | IC50 (786-O-HIF2α-Luc cells): 52 nM |
| 62 |  | O=S(=O)(c1cn(-c2ccc(F)c(C(F)F)c2)c2c1[C@H](O)CCC2)C(F)F [Example 32, (R)-1-(3-(difluoromethyl)-4-fluorophenyl)-3-((difluoromethyl)sulfonyl)-4,5,6,7-tetrahydro-1H-indol-4-ol] | IC50 (786-O-HIF2α-Luc cells; class symbols): 100 to 500 nM |
| 34 |  | N#Cc1ccc(-n2cc(C(F)(F)F)c3c2CCC(F)C3O)cc1C(F)F (centres unmarked) [Example 107, 2-(difluoromethyl)-4-(5-fluoro-4-hydroxyl-3-(trifluoromethyl)-4,5,6,7-tetrahydro-1H-indol-1-yl)benzonitrile] | IC50 (786-O-HIF2α-Luc cells; class symbols): ≤ 100 nM |
| 46 |  | O=S(=O)(c1cn(-c2ccc(F)c(C(F)F)c2)c2c1[C@H](O)CCC2)C(F)(F)F [Example 52, (R)-1-(3-(difluoromethyl)-4-fluorophenyl)-3-((trifluoromethyl)sulfonyl)-4,5,6,7-tetrahydro-1H-indol-4-ol] | IC50 (786-O-HIF2α-Luc cells): 45 nM |
| 109 |  | CS(=O)(=NC#N)c1cn(-c2ccc(F)c(C(F)F)c2)c2c1[C@H](O)C(F)(F)CC2 (stereo partly drawn) [Example 59, N—(((S)-1-(3-(difluoromethyl)-4-fluorophenyl)-5,5-difluoro-4-hydroxyl-4,5,6,7-tetrahydro-1H-indol-3-yl)(methyl)(oxo)-16-sulfino)cyanamide] | IC50 (786-O-HIF2α-Luc cells; class symbols): 100 to 500 nM |
|  | ≤ 500 | N#Cc1ccc(-n2cc(C(F)(F)C(F)(F)F)c3c2CCC(F)(F)C3O)cc1C(F)F (centres unmarked) [Example 41, 4-(5,5-difluoro-4-hydroxyl-3-(perfluoroethyl)-4,5,6,7-tetrahydro-1H-indol-1-yl)-2-(difluoromethyl)benzonitrile] |  |
| 74 |  | N#Cc1ccc(-n2cc(S(=O)(=O)C(F)(F)F)c3c2CCC(F)(F)[C@H]3O)cc1C#N [Example 42, (S)-4-(5,5-difluoro-4-hydroxyl-3-((trifluoromethyl)sulfonyl)-4,5,6,7-tetrahydro-1H-indol-1-yl)phthalonitrile] |  |
|  | ≤ 500 | NC(=O)c1cn(-c2ccc(F)c(C(F)F)c2)c2c1[C@H](O)C(F)(F)CC2 [Example 62, (S)-1-(3-(difluoromethyl)-4-fluorophenyl)-5,5-difluoro-4-hydroxyl-4,5,6,7-tetrahydro-1H-indole-3-carboxamide] |  |
| 108 |  | N#Cc1ccc(-n2cc(S(=O)(=O)CF)c3c2CCC(F)(F)[C@H]3O)cc1C(F)(F)F [Example 36, (S)-4-(5,5-difluoro-3-((fluoromethyl)sulfonyl)-4-hydroxyl-4,5,6,7-tetrahydro-1H-indol-1-yl)-2-(trifluoromethyl) benzonitrile] |  |
|  | ≤ 500 | N#Cc1ccc(-n2cc(S(=O)(=O)C(F)F)c3c2CCC(F)(F)[C@H]3O)cc1C(F)F [Example 43, (S)-2-(difluoromethyl)-4-(3-((difluoromethyl)sulfonyl)-5,5-difluoro-4-hydroxyl-4,5,6,7-tetrahydro-1H-indol-1-yl)benzonitrile] |  |
|  | ≤ 500 | O=S(=O)(CF)c1cn(-c2ccc(F)c(Cl)c2)c2c1[C@H](O)C(F)(F)CC2 [Example 37, (S)-1-(3-chloro-4-fluorophenyl)-5,5-difluoro-3-((fluoromethyl)sulfonyl)-4,5,6,7-tetrahydro-1H-indol-4-ol] |  |
| 99 |  | N#CC(F)(F)c1cn(-c2ccc(F)c(C(F)F)c2)c2c1[C@H](O)C(F)(F)CC2 [Example 49, (S)-2-(1-(3-(difluoromethyl)-4-fluorophenyl)-5,5-difluoro-4-hydroxyl-4,5,6,7-tetrahydro-1H-indol-3-yl)-2,2-difluoroacetonitrile] |  |
|  | ≤ 500 | N#Cc1ccc(-n2cc(C(F)(F)C(F)(F)F)c3c2CCC(F)(F)[C@H]3O)cc1C#N [Example 46, (S)-4-(5,5-difluoro-4-hydroxyl-3-(perfluoroethyl)-4,5,6,7-tetrahydro-1H-indol-1-yl)phthalonitrile] |  |

More lines, now with the values behind:

| Compound | IC50 (VEGFA) [nM] | IC50 (VEGFA; class symbols) [nM] | other results |
| --- | --- | --- | --- |
| O=S(=O)(c1cn(-c2ccc(F)c(C(F)(F)F)c2)c2c1[C@H](O)C(F)(F)CC2)C(F)(F)F [Example 23, (S)-5,5-difluoro-1-(4-fluoro-3-(trifluoromethyl)phenyl)-3-((trifluoromethyl)sulfonyl)-4,5,6,7-tetrahydro-1H-indol-4-ol] | 11 |  | IC50 (786-O-HIF2α-Luc cells): 40 nM |
| N#Cc1cc(-n2cc(S(=O)(=O)CF)c3c2CCC(F)(F)[C@H]3O)ccc1F [Example 11, (S)-5-(5,5-difluoro-3-((fluoromethyl)sulfonyl)-4-hydroxyl-4,5,6,7-tetrahydro-1H-indol-1-yl)-2-fluorobenzonitrile] | 27 |  | IC50 (786-O-HIF2α-Luc cells; class symbols): 100 to 500 nM |
| CS(=O)(=O)c1cn(-c2ccc(Cl)c(C#N)c2)c2c1[C@H](O)C(F)(F)CC2 [Example 27, (S)-2-chloro-5-(5,5-difluoro-4-hydroxyl-3-(methylsulfonyl)-4,5,6,7-tetrahydro-1H-indol-1-yl)benzonitrile] |  | ≤ 500 |  |
| N#CCS(=O)(=O)c1cn(-c2ccc(F)c(C(F)(F)F)c2)c2c1[C@H](O)C(F)(F)CC2 [Example 13, (S)-2-((5,5-difluoro-1-(4-fluoro-3-(trifluoromethyl)phenyl)-4-hydroxyl-4,5,6,7-tetrahydro-1H-indol-3-yl)sulfonyl)acetonitrile] |  | 500 to 1500 |  |
| O=S(=O)(CF)c1cn(-c2ccc(F)c(C(F)F)c2)c2c1[C@H](O)C(F)(F)CC2 [Example 14, (S)-1-(3-(difluoromethyl)-4-fluorophenyl)-5,5-difluoro-3-((fluoromethyl)sulfonyl)-4,5,6,7-tetrahydro-1H-indol-4-ol] | 40 |  | IC50 (786-O-HIF2α-Luc cells): 54 nM |
| N#Cc1cc(-n2cc(C(F)(F)F)c3c2CCC(F)(F)C3O)cc(F)c1F (centres unmarked) [Example 1, 5-(5,5-difluoro-4-hydroxyl-3-(trifluoromethyl)-4,5,6,7-tetrahydro-1H-indol-1-yl)-2,3-difluorobenzonitrile] |  | ≤ 500 |  |
| CS(=O)(=O)c1cn(-c2ccc(F)c(C(F)(F)F)c2)c2c1[C@H](O)C(F)(F)CC2 [Example 20, (S)-5,5-difluoro-1-(4-fluoro-3-(trifluoromethyl)phenyl)-3-(methylsulfonyl)-4,5,6,7-tetrahydro-1H-indol-4-ol] | 39 |  |  |
| O=S(=O)(c1cn(-c2ccc(F)c(C(F)F)c2)c2c1[C@H](O)C(F)(F)CC2)C(F)(F)F [Example 12, (S)-1-(3-(difluoromethyl)-4-fluorophenyl)-5,5-difluoro-3-((trifluoromethyl)sulfonyl)-4,5,6,7-tetrahydro-1H-indol-4-ol] | 10 |  | IC50 (786-O-HIF2α-Luc cells; class symbols): ≤ 100 nM |
| N#Cc1cc(-n2cc(C(F)(F)C#N)c3c2CCC(F)(F)C3O)ccc1F (centres unmarked) [Example 17, 5-(3-(cyanodifluoromethyl)-5,5-difluoro-4-hydroxyl-4,5,6,7-tetrahydro-1H-indol-1-yl)-2-fluorobenzonitrile] |  | ≤ 500 |  |
| N#Cc1ccc(-n2cc(C(F)(F)F)c3c2CCC(F)(F)[C@H]3O)cc1C(F)F [Example 3, (S)-4-(5,5-difluoro-4-hydroxyl-3-(trifluoromethyl)-4,5,6,7-tetrahydro-1H-indol-1-yl)-2-(difluoromethyl)benzonitrile] | 3 |  |  |
| CS(=O)(=O)c1cn(-c2ccc(C#N)c(C(F)F)c2)c2c1[C@H](O)C(F)(F)CC2 [Example 29, (S)-4-(5,5-difluoro-4-hydroxyl-3-(methylsulfonyl)-4,5,6,7-tetrahydro-1H-indol-1-yl)-2-(difluoromethyl)benzonitrile] | 174 |  |  |
| CS(=O)(=O)c1cn(-c2ccc(F)c(Cl)c2)c2c1C(O)C(F)(F)CC2 (centres unmarked) [Example 24, 1-(3-chloro-4-fluorophenyl)-5,5-difluoro-3-(methylsulfonyl)-4,5,6,7-tetrahydro-1H-indol-4-ol] | 72 |  |  |
| N#Cc1cc(-n2c(F)c(S(=O)(=O)C(F)F)c3c2CCC(F)(F)[C@H]3O)ccc1F [Example 22, (S)-5-(3-((difluoromethyl)sulfonyl)-2,5,5-trifluoroether-4-hydroxyl-4,5,6,7-tetrahydro-1H-indol-1-yl)-2-fluorobenzonitrile] | 86 |  |  |
